Test results taken from the supplement of paper PMC10307832.

Assays:
Experiment in all cases: relative viability (nuclei count vs DMSO), 5 days (fraction); higher = more cells survive
NCI-H838 = tested on: NCI-H838
Method in brief: (§1)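 Lung cancer cell lines, seeded in 1536-well plates, were treated the following day by pin tool with a single drug or with five library-drug doses (not always all listed) in √10 steps on top of a fixed anchor-drug dose. Cells were fixed and nuclei stained in one step after 5 days, and nuclei were counted. Relative viability is the nuclei count for treated wells divided by that for vehicle wells, reported as medians of duplicate plates.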

HOP-62 = tested on: HOP-62
Method in brief: as §1

NCI-H596 = tested on: NCI-H596
Method in brief: as §1

NCI-H1650 = tested on: NCI-H1650
Method in brief: as §1

LOU-NH91 = tested on: LOU-NH91
Method in brief: as §1

NCI-H2087 = tested on: NCI-H2087
Method in brief: as §1

HCC-44 = tested on: HCC-44
Method in brief: as §1

ChaGo-K-1 = tested on: ChaGo-K-1
Method in brief: as §1

HCC-78 = tested on: HCC-78
Method in brief: as §1

A-427 = tested on: A-427
Method in brief: as §1

NCI-H2023 = tested on: NCI-H2023
Method in brief: as §1

NCI-H358 = tested on: NCI-H358
Method in brief: as §1

NCI-H1734 = tested on: NCI-H1734
Method in brief: as §1

EKVX = tested on: EKVX
Method in brief: as §1

NCI-H3122 = tested on: NCI-H3122
Method in brief: as §1

NCI-H1395 = tested on: NCI-H1395
Method in brief: as §1

SK-MES-1 = tested on: SK-MES-1
Method in brief: as §1

COR-L23 = tested on: COR-L23
Method in brief: as §1

EPLC-272H = tested on: EPLC-272H
Method in brief: as §1

NCI-H661 = tested on: NCI-H661
Method in brief: as §1

NCI-H1915 = tested on: NCI-H1915
Method in brief: as §1

NCI-H650 = tested on: NCI-H650
Method in brief: as §1

HCC-366 = tested on: HCC-366
Method in brief: as §1

Compound `O=C(O)CCCCC(CCSCc1ccccc1)SCc1ccccc1` (centres undefined) [CPI-613] + Cc1cc(Nc2cc(N3CCN(C)CC3)nc(Sc3ccc(NC(=O)C4CC4)cc3)n2)n[nH]1 [Tozasertib] (partner 0.1 µM) has a relative viability (NCI-H838; first compound 5 µM) of 0.271, a relative viability (NCI-H838; first compound 15.81 µM) of 0.252 and a relative viability (NCI-H838; first compound 50 µM) of 0.249. The relative viability (NCI-H838; first compound 158.11 µM) was 0.194, the relative viability (NCI-H838; first compound 500 µM) was 0.104 and the relative viability (HOP-62; first compound 5 µM) was 0.383. It also gave a relative viability (HOP-62; first compound 15.81 µM) of 0.305, a relative viability (HOP-62; first compound 50 µM) of 0.286 and a relative viability (HOP-62; first compound 158.11 µM) of 0.191. For the same compound, the relative viability (HOP-62; first compound 500 µM) was 0.0544, the relative viability (NCI-H596; first compound 5 µM) was 1.08 and the relative viability (NCI-H596; first compound 15.81 µM) was 0.923. It also gave a relative viability (NCI-H596; first compound 50 µM) of 0.966, a relative viability (NCI-H596; first compound 158.11 µM) of 0.595 and a relative viability (NCI-H596; first compound 500 µM) of 0.0638. The relative viability (NCI-H1650; first compound 5 µM) was 0.441, the relative viability (NCI-H1650; first compound 15.81 µM) was 0.321 and the relative viability (NCI-H1650; first compound 50 µM) was 0.417. For the same compound, the relative viability (NCI-H1650; first compound 158.11 µM) was 0.0645, the relative viability (NCI-H1650; first compound 500 µM) was 0.0151 and the relative viability (LOU-NH91; first compound 5 µM) was 0.651. The relative viability (LOU-NH91; first compound 15.81 µM) was 0.611, the relative viability (LOU-NH91; first compound 50 µM) was 0.62 and the relative viability (LOU-NH91; first compound 158.11 µM) was 0.684. It also gave a relative viability (LOU-NH91; first compound 500 µM) of 0.643, a relative viability (NCI-H2087; first compound 5 µM) of 0.316 and a relative viability (NCI-H2087; first compound 15.81 µM) of 0.256. It also gave a relative viability (NCI-H2087; first compound 50 µM) of 0.21, a relative viability (NCI-H2087; first compound 158.11 µM) of 0.0949 and a relative viability (NCI-H2087; first compound 500 µM) of 0.0489. The relative viability (HCC-44; first compound 5 µM) was 0.936, the relative viability (HCC-44; first compound 15.81 µM) was 0.845 and the relative viability (HCC-44; first compound 50 µM) was 0.969. It also gave a relative viability (HCC-44; first compound 158.11 µM) of 0.322, a relative viability (HCC-44; first compound 500 µM) of 0.0777 and a relative viability (ChaGo-K-1; first compound 5 µM) of 0.207. It also gave a relative viability (ChaGo-K-1; first compound 15.81 µM) of 0.185, a relative viability (ChaGo-K-1; first compound 50 µM) of 0.234 and a relative viability (ChaGo-K-1; first compound 158.11 µM) of 0.148. The relative viability (ChaGo-K-1; first compound 500 µM) was 0.16, the relative viability (HCC-78; first compound 5 µM) was 0.46 and the relative viability (HCC-78; first compound 15.81 µM) was 0.402. It also gave a relative viability (HCC-78; first compound 50 µM) of 0.408, a relative viability (HCC-78; first compound 158.11 µM) of 0.433 and a relative viability (HCC-78; first compound 500 µM) of 0.405. It also gave a relative viability (A-427; first compound 5 µM) of 0.204, a relative viability (A-427; first compound 15.81 µM) of 0.193 and a relative viability (A-427; first compound 50 µM) of 0.203. It also gave a relative viability (A-427; first compound 158.11 µM) of 0.124, a relative viability (A-427; first compound 500 µM) of 0.0991 and a relative viability (NCI-H2023; first compound 5 µM) of 0.359. For the same compound, the relative viability (NCI-H2023; first compound 15.81 µM) was 0.234, the relative viability (NCI-H2023; first compound 50 µM) was 0.312 and the relative viability (NCI-H2023; first compound 158.11 µM) was 0.0417. It also gave a relative viability (NCI-H2023; first compound 500 µM) of 0.0077, a relative viability (NCI-H358; first compound 15.81 µM) of 0.113 and a relative viability (NCI-H358; first compound 50 µM) of 0.0981. For the same compound, the relative viability (NCI-H358; first compound 158.11 µM) was 0.0576, the relative viability (NCI-H358; first compound 500 µM) was 0.0347 and the relative viability (NCI-H1734; first compound 5 µM) was 0.235. It also gave a relative viability (NCI-H1734; first compound 15.81 µM) of 0.24, a relative viability (NCI-H1734; first compound 50 µM) of 0.291 and a relative viability (NCI-H1734; first compound 158.11 µM) of 0.152. For the same compound, the relative viability (NCI-H1734; first compound 500 µM) was 0.118, the relative viability (EKVX; first compound 5 µM) was 0.384 and the relative viability (EKVX; first compound 15.81 µM) was 0.401. The relative viability (EKVX; first compound 50 µM) was 0.366, the relative viability (EKVX; first compound 158.11 µM) was 0.368 and the relative viability (EKVX; first compound 500 µM) was 0.41. It also gave a relative viability (NCI-H3122; first compound 5 µM) of 0.357, a relative viability (NCI-H3122; first compound 15.81 µM) of 0.363 and a relative viability (NCI-H3122; first compound 50 µM) of 0.348. It also gave a relative viability (NCI-H3122; first compound 158.11 µM) of 0.211, a relative viability (NCI-H3122; first compound 500 µM) of 0.0108 and a relative viability (NCI-H1395; first compound 5 µM) of 0.691. The relative viability (NCI-H1395; first compound 15.81 µM) was 0.632, the relative viability (NCI-H1395; first compound 50 µM) was 0.653 and the relative viability (NCI-H1395; first compound 158.11 µM) was 0.752. It also gave a relative viability (NCI-H1395; first compound 500 µM) of 0.612, a relative viability (SK-MES-1; first compound 5 µM) of 0.895 and a relative viability (SK-MES-1; first compound 15.81 µM) of 0.783. The relative viability (SK-MES-1; first compound 50 µM) was 0.753, the relative viability (SK-MES-1; first compound 158.11 µM) was 0.138 and the relative viability (SK-MES-1; first compound 500 µM) was 0.106. The relative viability (COR-L23; first compound 5 µM) was 0.208, the relative viability (COR-L23; first compound 15.81 µM) was 0.145 and the relative viability (COR-L23; first compound 50 µM) was 0.192. It also gave a relative viability (COR-L23; first compound 158.11 µM) of 0.11, a relative viability (COR-L23; first compound 500 µM) of 0.0434 and a relative viability (EPLC-272H; first compound 5 µM) of 0.285. For the same compound, the relative viability (EPLC-272H; first compound 15.81 µM) was 0.279, the relative viability (EPLC-272H; first compound 50 µM) was 0.242 and the relative viability (EPLC-272H; first compound 158.11 µM) was 0.0813. For the same compound, the relative viability (EPLC-272H; first compound 500 µM) was 0.0387, the relative viability (NCI-H661; first compound 5 µM) was 0.358 and the relative viability (NCI-H661; first compound 15.81 µM) was 0.324. For the same compound, the relative viability (NCI-H661; first compound 50 µM) was 0.348, the relative viability (NCI-H661; first compound 158.11 µM) was 0.331 and the relative viability (NCI-H661; first compound 500 µM) was 0.203. The relative viability (NCI-H1915; first compound 5 µM) was 0.44, the relative viability (NCI-H1915; first compound 15.81 µM) was 0.4 and the relative viability (NCI-H1915; first compound 50 µM) was 0.322. For the same compound, the relative viability (NCI-H1915; first compound 158.11 µM) was 0.241, the relative viability (NCI-H1915; first compound 500 µM) was 0.111 and the relative viability (NCI-H650; first compound 5 µM) was 0.702. For the same compound, the relative viability (NCI-H650; first compound 15.81 µM) was 0.623, the relative viability (NCI-H650; first compound 50 µM) was 0.699 and the relative viability (NCI-H650; first compound 158.11 µM) was 0.546. The relative viability (NCI-H650; first compound 500 µM) was 0.586, the relative viability (HCC-366; first compound 5 µM) was 0.0925 and the relative viability (HCC-366; first compound 15.81 µM) was 0.33. It also gave a relative viability (HCC-366; first compound 50 µM) of 0.156, a relative viability (HCC-366; first compound 158.11 µM) of 0.0259 and a relative viability (HCC-366; first compound 500 µM) of 0.0032.
